The nature of data set [1]: Metabolism rate, pmol/min/mg at 1 μM, rat male. The note with it: 1 μM compound. It counts as in vitro ADME.
Another data set has as its target T1, rat GnRH receptor (Rattus norvegicus, UniProt P30969).
T1 sequence (P30969 1-327): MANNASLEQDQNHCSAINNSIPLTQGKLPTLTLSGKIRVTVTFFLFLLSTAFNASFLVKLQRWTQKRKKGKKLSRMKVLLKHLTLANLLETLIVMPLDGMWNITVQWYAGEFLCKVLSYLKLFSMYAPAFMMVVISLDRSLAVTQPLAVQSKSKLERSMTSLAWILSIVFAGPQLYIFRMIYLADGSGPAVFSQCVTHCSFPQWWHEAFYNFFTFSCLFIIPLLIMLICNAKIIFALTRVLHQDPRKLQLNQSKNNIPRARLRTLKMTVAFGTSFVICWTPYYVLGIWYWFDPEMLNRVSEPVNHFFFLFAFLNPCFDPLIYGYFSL
Put plainly: Radioligand binding, 125I-GnRH-A, rat pituitary membranes. Details: membranes were prepared from rat pituitary; from tissue; host or cells: rat pituitary. Particulars: read-out: rGnRH IC50. An outline of the steps:
(§1)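 Bound label captured on 0.1% polyethyleneimine-treated GF/C filters, washed three times with PBS, counted. IC50 derived; identical set-up for every species.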

The target in the next data set is T2, mouse GnRH receptor (Mus musculus, UniProt Q01776).
T2 construct: expressed in transfected cells; host or cells: 293 cells
T2 sequence (Q01776 1-327): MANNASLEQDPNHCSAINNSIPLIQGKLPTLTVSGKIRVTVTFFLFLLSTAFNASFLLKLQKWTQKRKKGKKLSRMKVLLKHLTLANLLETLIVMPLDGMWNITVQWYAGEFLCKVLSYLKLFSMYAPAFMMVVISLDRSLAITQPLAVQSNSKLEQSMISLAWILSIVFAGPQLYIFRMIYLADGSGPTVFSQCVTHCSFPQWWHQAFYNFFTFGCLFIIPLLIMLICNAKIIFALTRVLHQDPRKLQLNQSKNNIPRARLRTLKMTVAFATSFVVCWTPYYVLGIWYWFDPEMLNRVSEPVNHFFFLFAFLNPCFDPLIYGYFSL
Put plainly: Radioligand binding, 125I-GnRH-A, 293 cells expressing mouse GnRH receptors. Particulars: read-out: mGnRH IC50. The procedure, abridged: as §1

Data set [2] is described as follows: Metabolism rate, pmol/min/mg at 1 μM, human. It counts as in vitro ADME. Particulars: 1 μM compound.
Another data set addresses T3, human GnRH receptor (Homo sapiens, UniProt P30968).
T3 construct: expressed in transfected cells; host or cells: HEK 293 (hGnRH-R/293, from Dr. Stuart Sealfon)
T3 sequence (P30968 1-328): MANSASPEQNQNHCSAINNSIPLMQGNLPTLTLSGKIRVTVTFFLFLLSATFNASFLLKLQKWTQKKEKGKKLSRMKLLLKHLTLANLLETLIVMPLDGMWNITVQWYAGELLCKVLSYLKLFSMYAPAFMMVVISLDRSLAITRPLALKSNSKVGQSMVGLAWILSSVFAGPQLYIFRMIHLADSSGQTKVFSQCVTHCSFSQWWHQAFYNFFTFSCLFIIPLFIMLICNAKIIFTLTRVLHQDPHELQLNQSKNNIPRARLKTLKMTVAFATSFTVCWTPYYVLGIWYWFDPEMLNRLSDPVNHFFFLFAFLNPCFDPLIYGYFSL
The data set is described as follows: Radioligand binding, 125I-GnRH-A displacement, membranes of HEK 293 cells with human GnRH receptor. The note with it: read-out: hGnRH IC50. The procedure, abridged: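 Bound tracer was separated by filtration through polyethyleneimine-soaked GF/C filters and counted by liquid scintillation. IC50 from curve fitting; other species were tested under the same conditions.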

The nature of data set [3]: Pharmacokinetic studies / bioavailability in rats. It is filed as in vivo, rat. Particulars: rat male.
Setting [4] is: male, rat, plasma, po, 20 mg/kg, p.o. 20 mg/kg, vehicle per footnote (DMSO/cremophor/saline).

For the compound `COc1ccc(NC(=O)c2ccc(Cc3cc4c(cc3C)C(C)(C)CCC4(C)C)o2)c(OC)c1` [Compound 99], the “Rat male pmol/min/mg 1 μM” value in data set [1] is on record as 2549 pmol/min/mg. The IC50 on rat GnRH receptor was found to be 108 nM; at mouse GnRH receptor it was 105 nM; at human GnRH receptor, 56 nM. In addition, in data set [2], the “Human pmol/min/mg 1 μM” value came to 353 pmol/min/mg.
For the compound `Cc1cc2c(cc1Cc1ccc(C(=O)Nc3ccc4[nH]ncc4c3)o1)C(C)(C)CCC2(C)C` [Compound 109], the “Rat male pmol/min/mg 1 μM” value in data set [1] was found to be 1055 pmol/min/mg. Further, the values for the IC50 at rat GnRH receptor, on mouse GnRH receptor and at human GnRH receptor were 140 nM, 140 nM and 75 nM, respectively. Besides, in data set [2], the “Human pmol/min/mg 1 μM” value turned out to be 130 pmol/min/mg.
On to `Cc1cc2c(cc1Cc1ccc(C(=O)NCc3cccc(CNc4nccc(N5CCOCC5)n4)c3)o1)C(C)(C)CCC2(C)C` [Compound 150], for which the “Rat male pmol/min/mg 1 μM” value in data set [1] stood at 3334 pmol/min/mg. In addition, the IC50 at rat GnRH receptor was determined as 8 nM; at mouse GnRH receptor, 13 nM; on human GnRH receptor, 80 nM. Further, the “Human pmol/min/mg 1 μM” value in data set [2] is 655 pmol/min/mg.
As to `Cc1cc2c(cc1Cc1ccc(C(=O)NCc3cccc(CNc4ncc(C)c(NCC5CCCO5)n4)c3)o1)C(C)(C)CCC2(C)C` (stereo not shown) [Compound 151], the “Rat male pmol/min/mg 1 μM” value in data set [1] is 3043 pmol/min/mg. Also, the IC50 at rat GnRH receptor came out at 7.2 nM; on mouse GnRH receptor, 5.2 nM; at human GnRH receptor it was 65 nM. In addition, the “Human pmol/min/mg 1 μM” value in data set [2] is 225 pmol/min/mg.
Take `COCCNc1nccc(NCc2cccc(CNC(=O)c3ccc(Cc4cc5c(cc4C)C(C)(C)CCC5(C)C)o3)c2)n1` [Compound 154]: in data set [1], the “Rat male pmol/min/mg 1 μM” value came to 4481 pmol/min/mg. The IC50 on rat GnRH receptor came out at 22 nM; at mouse GnRH receptor, 36 nM; on human GnRH receptor, 150 nM. Moreover, the “Human pmol/min/mg 1 μM” value in data set [2] is recorded as 241 pmol/min/mg.
In the same order, the values of `Cc1cc2c(cc1Cc1ccc(C(=O)NC[C@H]3CC[C@H](C(N)=O)CC3)o1)C(C)(C)CCC2(C)C` [Compound 156] are 2995 pmol/min/mg, 270 nM, 400 nM, 24 nM and 867 pmol/min/mg.
On to `COc1cc(CO)cc(OC)c1NC(=O)c1ccc(Cc2cc3c(cc2C)C(C)(C)CCC3(C)C)o1` [Compound 159], for which, in data set [1], the “Rat male pmol/min/mg 1 μM” value is 6642 pmol/min/mg. In addition, the IC50 on rat GnRH receptor is 5 nM; on mouse GnRH receptor, 16 nM; on human GnRH receptor, 45 nM. Further, the “Human pmol/min/mg 1 μM” value in data set [2] was determined as 793 pmol/min/mg.
As to `COc1cc(OC)c(NC(=O)c2ccc(Cc3c(C)cc(C)cc3C)o2)c(OC)c1` [Compound 168], in data set [1], the “Rat male pmol/min/mg 1 μM” value is reported as 1087 pmol/min/mg. Further, the IC50 on rat GnRH receptor came to 130 nM; at mouse GnRH receptor, 130 nM; on human GnRH receptor, 230 nM. In data set [2], the “Human pmol/min/mg 1 μM” value is reported as 407 pmol/min/mg. In addition, the half-life in data set [3] (male, rat, plasma, iv, 10 mg/kg) is 1.8 h. The same compound gave a Cmax in data set [3] (setting [4]) of 300 nM. Moreover, the Tmax in data set [3] (setting [4]) stood at 1 h. For the same compound, in data set [3] (p.o. 20 mg/kg, vehicle per footnote (DMSO/cremophor/saline)), the Fp.o. is on record as 1% (20 mg/kg)^6.
For `Cc1cc2c(cc1Cc1ccc(C(=O)NCc3cccc(CNc4ccnc(NC[C@@H]5CCCO5)n4)c3)o1)C(C)(C)CCC2(C)C` [Compound 176], in data set [1], the “Rat male pmol/min/mg 1 μM” value is 2341 pmol/min/mg. The IC50 on rat GnRH receptor amounted to 3 nM; on mouse GnRH receptor, 4 nM. The “Human pmol/min/mg 1 μM” value in data set [2] stood at 273 pmol/min/mg. The compound also registered a T1/2 in data set [3] of 2.8 h.

One may read the IC50 as the concentration that inhibits the measured activity by half. For orientation: half-life means how long it takes for the measured level to halve. Higher therefore signals slow loss. What is called Cmax is the highest concentration seen after dosing. Broadly, the Tmax is the time at which the peak concentration occurs.
